Assays:
Assay in all cases: Kinase profiling
Format in all cases: biochemical
MuSK(h) = target: T1, MuSK(h) (Homo sapiens, UniProt O15146)
T1 construct: purchased Eurofins Cerep SA (KinaseProfiler)
Procedure: (§1) 380 kinases inhibitory activities of SKLB-D18 were conducted by Eurofins Cerep SA. The result was illustrated by kinase tree (http://www.kinhub.org/kinmap/).

TGFBR2(h) = target: T2, TGFBR2(h) (Homo sapiens, UniProt P37173)
T2 construct: purchased Eurofins Cerep SA (KinaseProfiler)
Procedure: as §1

CaMKI(h) = target: T3, CaMKI(h) (Homo sapiens, UniProt Q14012)
T3 construct: purchased Eurofins Cerep SA (KinaseProfiler)
Procedure: as §1

PRKG2(h) = target: T4, PRKG2(h) (Homo sapiens, UniProt Q13237)
T4 construct: purchased Eurofins Cerep SA (KinaseProfiler)
Procedure: as §1

MAPK3(h) = target: T5, MAPK3(h) (Homo sapiens, UniProt P27361)
T5 construct: purchased Eurofins Cerep SA (KinaseProfiler)
Procedure: as §1

MLK2(h) = target: T6, MLK2(h) (Homo sapiens, UniProt Q02779)
T6 construct: purchased Eurofins Cerep SA (KinaseProfiler)
Procedure: as §1

ZAK(h) = target: T7, ZAK(h) (Homo sapiens, UniProt Q9NYL2)
T7 construct: purchased Eurofins Cerep SA (KinaseProfiler)
Procedure: as §1

TGFBR1(h) = target: T8, TGFBR1(h) (Homo sapiens, UniProt P36897)
T8 construct: purchased Eurofins Cerep SA (KinaseProfiler)
T8 sequence (P36897 34-503): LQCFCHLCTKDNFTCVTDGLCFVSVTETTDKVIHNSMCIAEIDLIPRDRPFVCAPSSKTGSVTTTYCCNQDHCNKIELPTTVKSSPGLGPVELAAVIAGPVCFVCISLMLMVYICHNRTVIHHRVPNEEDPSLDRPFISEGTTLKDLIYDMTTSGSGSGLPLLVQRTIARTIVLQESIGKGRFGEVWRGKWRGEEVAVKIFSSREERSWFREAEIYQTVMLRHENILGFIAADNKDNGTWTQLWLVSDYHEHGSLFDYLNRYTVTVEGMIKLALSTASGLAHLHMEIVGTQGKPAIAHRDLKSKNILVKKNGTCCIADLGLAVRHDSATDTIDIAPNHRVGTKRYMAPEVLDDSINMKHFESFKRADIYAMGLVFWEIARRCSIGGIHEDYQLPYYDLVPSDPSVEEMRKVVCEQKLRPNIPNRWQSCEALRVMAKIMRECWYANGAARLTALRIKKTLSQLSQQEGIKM
Procedure: as §1

KDR(h) = target: T9, KDR(h) (Homo sapiens, UniProt P35968)
T9 construct: purchased Eurofins Cerep SA (KinaseProfiler)
Procedure: as §1

PKA(h) = target: T10, PKA(h) (Homo sapiens, UniProt P17612)
T10 construct: purchased Eurofins Cerep SA (KinaseProfiler)
Procedure: as §1

NEK9(h) = target: T11, NEK9(h) (Homo sapiens, UniProt Q8TD19)
T11 construct: purchased Eurofins Cerep SA (KinaseProfiler)
Procedure: as §1

SRPK1(h) = target: T12, SRPK1(h) (Homo sapiens, UniProt Q96SB4)
T12 construct: purchased Eurofins Cerep SA (KinaseProfiler)
Procedure: as §1

ErbB4(h) = target: T13, ErbB4(h) (Homo sapiens, UniProt Q15303)
T13 construct: purchased Eurofins Cerep SA (KinaseProfiler)
Procedure: as §1

STK32B(h) = target: T14, STK32B(h) (Homo sapiens, UniProt Q9NY57)
T14 construct: purchased Eurofins Cerep SA (KinaseProfiler)
T14 sequence (Q9NY57 whole entry): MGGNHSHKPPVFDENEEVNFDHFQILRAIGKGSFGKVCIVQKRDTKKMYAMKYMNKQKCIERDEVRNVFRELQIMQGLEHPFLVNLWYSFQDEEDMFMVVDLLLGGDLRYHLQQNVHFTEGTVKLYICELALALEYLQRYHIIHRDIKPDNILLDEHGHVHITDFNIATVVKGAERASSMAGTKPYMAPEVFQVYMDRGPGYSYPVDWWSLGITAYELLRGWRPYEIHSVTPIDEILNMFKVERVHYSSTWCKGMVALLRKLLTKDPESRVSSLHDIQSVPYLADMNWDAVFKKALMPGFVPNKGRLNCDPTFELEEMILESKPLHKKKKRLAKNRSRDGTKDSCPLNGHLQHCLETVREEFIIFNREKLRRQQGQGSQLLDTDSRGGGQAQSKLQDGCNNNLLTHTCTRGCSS
Procedure: as §1

PKCγ(h) = target: T15, PKCγ(h) (Homo sapiens, UniProt P05129)
T15 construct: purchased Eurofins Cerep SA (KinaseProfiler)
Procedure: as §1

MEKK3(h) = target: T16, MEKK3(h) (Homo sapiens, UniProt Q99759)
T16 construct: purchased Eurofins Cerep SA (KinaseProfiler)
Procedure: as §1

[1] = target: T17, PI3 Kinase (p110d/p85a)(h) (Homo sapiens, UniProt O00329)
T17 construct: purchased Eurofins Cerep SA (KinaseProfiler)
Procedure: as §1

MRCKα(h) = target: T18, MRCKα(h) (Homo sapiens, UniProt Q5VT25)
T18 construct: purchased Eurofins Cerep SA (KinaseProfiler)
Procedure: as §1

LOK(h) = target: T19, LOK(h) (Homo sapiens, UniProt O94804)
T19 construct: purchased Eurofins Cerep SA (KinaseProfiler)
Procedure: as §1

Lyn(h) = target: T20, Lyn(h) (Homo sapiens, UniProt P07948)
T20 construct: purchased Eurofins Cerep SA (KinaseProfiler)
T20 sequence (P07948 whole entry): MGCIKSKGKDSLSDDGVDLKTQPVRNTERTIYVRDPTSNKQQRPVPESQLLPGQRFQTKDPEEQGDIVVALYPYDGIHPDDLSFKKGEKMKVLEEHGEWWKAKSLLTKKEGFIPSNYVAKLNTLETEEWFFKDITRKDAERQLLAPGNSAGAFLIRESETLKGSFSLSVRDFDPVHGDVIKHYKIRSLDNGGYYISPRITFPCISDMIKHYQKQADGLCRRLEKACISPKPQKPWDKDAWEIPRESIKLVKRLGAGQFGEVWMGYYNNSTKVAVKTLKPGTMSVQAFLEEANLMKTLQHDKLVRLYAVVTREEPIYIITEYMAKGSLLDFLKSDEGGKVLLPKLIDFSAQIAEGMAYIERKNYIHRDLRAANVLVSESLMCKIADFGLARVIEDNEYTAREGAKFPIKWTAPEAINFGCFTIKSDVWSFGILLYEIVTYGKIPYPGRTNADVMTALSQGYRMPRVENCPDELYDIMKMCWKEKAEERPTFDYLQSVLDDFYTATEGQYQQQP
Procedure: as §1

JAK1(h) = target: T21, JAK1(h) (Homo sapiens, UniProt P23458)
T21 construct: purchased Eurofins Cerep SA (KinaseProfiler)
T21 sequence (P23458 whole entry): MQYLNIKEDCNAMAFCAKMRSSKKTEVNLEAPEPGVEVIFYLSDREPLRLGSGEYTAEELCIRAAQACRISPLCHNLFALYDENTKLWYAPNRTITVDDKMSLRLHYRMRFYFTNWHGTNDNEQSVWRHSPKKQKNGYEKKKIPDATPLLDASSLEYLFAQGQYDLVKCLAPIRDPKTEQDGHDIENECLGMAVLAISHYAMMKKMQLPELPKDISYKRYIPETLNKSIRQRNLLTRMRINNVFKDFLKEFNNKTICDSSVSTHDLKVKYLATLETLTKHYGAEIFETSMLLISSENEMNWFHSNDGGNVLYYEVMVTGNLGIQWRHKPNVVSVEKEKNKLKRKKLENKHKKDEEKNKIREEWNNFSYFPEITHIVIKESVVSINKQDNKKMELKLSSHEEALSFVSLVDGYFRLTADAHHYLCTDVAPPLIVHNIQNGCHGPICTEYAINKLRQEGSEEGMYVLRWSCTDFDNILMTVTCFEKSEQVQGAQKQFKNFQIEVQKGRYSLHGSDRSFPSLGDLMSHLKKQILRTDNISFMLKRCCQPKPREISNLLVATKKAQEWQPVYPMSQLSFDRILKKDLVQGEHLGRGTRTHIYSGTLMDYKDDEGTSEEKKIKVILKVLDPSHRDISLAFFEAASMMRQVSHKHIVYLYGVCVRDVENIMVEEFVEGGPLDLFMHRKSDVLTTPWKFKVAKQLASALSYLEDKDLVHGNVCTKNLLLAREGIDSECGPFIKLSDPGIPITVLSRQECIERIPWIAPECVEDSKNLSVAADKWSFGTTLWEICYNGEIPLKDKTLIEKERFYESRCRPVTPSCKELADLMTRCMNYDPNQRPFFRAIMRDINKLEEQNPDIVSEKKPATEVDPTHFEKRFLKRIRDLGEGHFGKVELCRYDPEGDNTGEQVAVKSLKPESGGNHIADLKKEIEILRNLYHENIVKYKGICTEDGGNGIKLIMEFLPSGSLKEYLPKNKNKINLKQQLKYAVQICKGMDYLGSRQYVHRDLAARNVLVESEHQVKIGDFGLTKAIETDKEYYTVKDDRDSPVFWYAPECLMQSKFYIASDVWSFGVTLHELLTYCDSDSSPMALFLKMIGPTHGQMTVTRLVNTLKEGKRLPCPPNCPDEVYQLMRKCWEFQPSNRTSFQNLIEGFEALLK
Procedure: as §1

CK1γ1(h) = target: T22, CK1γ1(h) (Homo sapiens, UniProt Q9HCP0)
T22 construct: purchased Eurofins Cerep SA (KinaseProfiler)
Procedure: as §1

A-Raf(h) = target: T23, A-Raf(h) (Homo sapiens, UniProt P10398)
T23 construct: purchased Eurofins Cerep SA (KinaseProfiler)
Procedure: as §1

SAPK2b(h) = target: T24, SAPK2b(h) (Homo sapiens, UniProt Q15759)
T24 construct: purchased Eurofins Cerep SA (KinaseProfiler)
Procedure: as §1

CLK1(h) = target: T25, CLK1(h) (Homo sapiens, UniProt P49759)
T25 construct: purchased Eurofins Cerep SA (KinaseProfiler)
Procedure: as §1

AMPKα1(h) = target: T26, AMPKα1(h) (Homo sapiens, UniProt Q13131)
T26 construct: purchased Eurofins Cerep SA (KinaseProfiler)
Procedure: as §1

Pim-1(h) = target: T27, Pim-1(h) (Homo sapiens, UniProt P11309)
T27 construct: purchased Eurofins Cerep SA (KinaseProfiler)
Procedure: as §1

MYLK2(h) = target: T28, MYLK2(h) (Homo sapiens, UniProt Q9H1R3)
T28 construct: purchased Eurofins Cerep SA (KinaseProfiler)
Procedure: as §1

CLK4(h) = target: T29, CLK4(h) (Homo sapiens, UniProt Q9HAZ1)
T29 construct: purchased Eurofins Cerep SA (KinaseProfiler)
Procedure: as §1

ErbB2(h) = target: T30, ErbB2(h) (Homo sapiens, UniProt P04626)
T30 construct: purchased Eurofins Cerep SA (KinaseProfiler)
Procedure: as §1

ACTR2(h) = target: T31, ACTR2(h) (Homo sapiens, UniProt P27037)
T31 construct: purchased Eurofins Cerep SA (KinaseProfiler)
T31 sequence (P27037 20-513): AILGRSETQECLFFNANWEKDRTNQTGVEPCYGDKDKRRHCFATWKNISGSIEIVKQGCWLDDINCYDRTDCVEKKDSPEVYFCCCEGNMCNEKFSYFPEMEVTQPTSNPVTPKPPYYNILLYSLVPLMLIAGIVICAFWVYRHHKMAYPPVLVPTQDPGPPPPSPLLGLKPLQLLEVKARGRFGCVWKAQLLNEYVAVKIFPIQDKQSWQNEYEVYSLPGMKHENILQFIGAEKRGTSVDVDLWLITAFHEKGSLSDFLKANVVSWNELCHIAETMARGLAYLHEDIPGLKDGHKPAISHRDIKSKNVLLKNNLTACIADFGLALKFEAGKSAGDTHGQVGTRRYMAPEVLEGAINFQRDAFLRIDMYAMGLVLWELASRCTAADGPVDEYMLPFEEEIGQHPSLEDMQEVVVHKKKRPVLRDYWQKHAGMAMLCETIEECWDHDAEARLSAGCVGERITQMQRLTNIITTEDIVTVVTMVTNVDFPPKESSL
Procedure: as §1

PAK4(h) = target: T32, PAK4(h) (Homo sapiens, UniProt O96013)
T32 construct: purchased Eurofins Cerep SA (KinaseProfiler)
Procedure: as §1

NEK5(h) = target: T33, NEK5(h) (Homo sapiens, UniProt Q6P3R8)
T33 construct: purchased Eurofins Cerep SA (KinaseProfiler)
Procedure: as §1

MAPK7(h) = target: T34, MAPK7(h) (Homo sapiens, UniProt Q13164)
T34 construct: purchased Eurofins Cerep SA (KinaseProfiler)
Procedure: as §1

GSK3β(h) = target: T35, GSK3β(h) (Homo sapiens, UniProt P49841)
T35 construct: purchased Eurofins Cerep SA (KinaseProfiler)
Procedure: as §1

IKKβ(h) = target: T36, IKKβ(h) (Homo sapiens, UniProt O14920)
T36 construct: purchased Eurofins Cerep SA (KinaseProfiler)
T36 sequence (O14920 whole entry): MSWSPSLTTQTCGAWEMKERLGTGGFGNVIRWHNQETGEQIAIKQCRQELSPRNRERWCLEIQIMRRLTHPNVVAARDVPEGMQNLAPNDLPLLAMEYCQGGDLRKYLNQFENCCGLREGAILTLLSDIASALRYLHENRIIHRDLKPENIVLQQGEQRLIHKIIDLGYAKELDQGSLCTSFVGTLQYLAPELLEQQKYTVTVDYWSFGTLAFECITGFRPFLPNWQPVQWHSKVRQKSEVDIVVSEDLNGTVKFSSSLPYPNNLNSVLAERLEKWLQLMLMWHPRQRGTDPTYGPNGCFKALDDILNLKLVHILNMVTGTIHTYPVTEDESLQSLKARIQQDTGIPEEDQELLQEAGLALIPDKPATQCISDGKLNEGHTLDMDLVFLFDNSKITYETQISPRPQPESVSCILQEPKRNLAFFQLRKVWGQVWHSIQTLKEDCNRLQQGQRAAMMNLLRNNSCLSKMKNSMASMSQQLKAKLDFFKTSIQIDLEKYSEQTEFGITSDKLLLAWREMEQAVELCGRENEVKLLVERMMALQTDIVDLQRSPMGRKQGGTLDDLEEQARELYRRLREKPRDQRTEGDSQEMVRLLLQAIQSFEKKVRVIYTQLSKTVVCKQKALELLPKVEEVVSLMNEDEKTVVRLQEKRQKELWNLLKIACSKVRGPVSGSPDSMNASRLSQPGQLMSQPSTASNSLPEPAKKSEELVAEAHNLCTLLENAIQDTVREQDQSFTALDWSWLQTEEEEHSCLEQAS
Procedure: as §1

Plk1(h) = target: T37, Plk1(h) (Homo sapiens, UniProt P53350)
T37 construct: purchased Eurofins Cerep SA (KinaseProfiler)
Procedure: as §1

CK1α(h) = target: T38, CK1α(h) (Homo sapiens, UniProt P48729)
T38 construct: purchased Eurofins Cerep SA (KinaseProfiler)
Procedure: as §1

WNK2(h) = target: T39, WNK2(h) (Homo sapiens, UniProt Q9Y3S1)
T39 construct: purchased Eurofins Cerep SA (KinaseProfiler)
Procedure: as §1

NDR2(h) = target: T40, NDR2(h) (Homo sapiens, UniProt Q9Y2H1)
T40 construct: purchased Eurofins Cerep SA (KinaseProfiler)
Procedure: as §1

Plk3(h) = target: T41, Plk3(h) (Homo sapiens, UniProt Q9H4B4)
T41 construct: purchased Eurofins Cerep SA (KinaseProfiler)
Procedure: as §1

T2 sequence (P37173 23-567): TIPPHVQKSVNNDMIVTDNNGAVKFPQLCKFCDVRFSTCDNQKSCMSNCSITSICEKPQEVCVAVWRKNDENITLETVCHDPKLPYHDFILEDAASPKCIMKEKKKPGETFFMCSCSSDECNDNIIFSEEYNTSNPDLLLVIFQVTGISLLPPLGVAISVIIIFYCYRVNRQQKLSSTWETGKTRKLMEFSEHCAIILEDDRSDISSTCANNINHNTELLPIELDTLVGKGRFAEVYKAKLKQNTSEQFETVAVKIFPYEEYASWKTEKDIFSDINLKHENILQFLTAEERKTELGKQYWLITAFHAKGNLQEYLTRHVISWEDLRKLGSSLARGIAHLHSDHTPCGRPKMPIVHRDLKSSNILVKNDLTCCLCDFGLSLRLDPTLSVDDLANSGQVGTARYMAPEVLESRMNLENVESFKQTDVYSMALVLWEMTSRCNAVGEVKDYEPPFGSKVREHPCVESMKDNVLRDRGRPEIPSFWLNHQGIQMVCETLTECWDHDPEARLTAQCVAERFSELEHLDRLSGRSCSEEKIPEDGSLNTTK

CN(C)Cc1cccc(Nc2ncc(Cl)c(-c3csc(C(=O)NN4CCOCC4)c3)n2)c1 [SKLB-D18, 4-(5-chloro-2-((3-((dimethylamino)methyl)phenyl)amino)pyrimidin-4-yl)-N-morpholinothiophene-2-carboxamide]
inhibition at 1 µM (MuSK(h)): 20% | inhibition at 1 µM (TGFBR2(h)): 30% | inhibition at 1 µM (CaMKI(h)): 16% | inhibition at 1 µM (PRKG2(h)): 18% | inhibition at 1 µM (MAPK3(h)): 96% | inhibition at 1 µM (MLK2(h)): 59% | inhibition at 1 µM (ZAK(h)): 5% | inhibition at 1 µM (TGFBR1(h)): 20% | inhibition at 1 µM (KDR(h)): 66% | inhibition at 1 µM (PKA(h)): 19% | inhibition at 1 µM (NEK9(h)): 56% | inhibition at 1 µM (SRPK1(h)): -2% | inhibition at 1 µM (ErbB4(h)): -16% | inhibition at 1 µM (STK32B(h)): -3% | inhibition at 1 µM (PKCγ(h)): 27% | inhibition at 1 µM (MEKK3(h)): 8% | inhibition at 1 µM [1]: 0% | inhibition at 1 µM (MRCKα(h)): 2% | inhibition at 1 µM (LOK(h)): 2% | inhibition at 1 µM (Lyn(h)): 60% | inhibition at 1 µM (JAK1(h)): 59% | inhibition at 1 µM (CK1γ1(h)): 16% | inhibition at 1 µM (A-Raf(h)): 63% | inhibition at 1 µM (SAPK2b(h)): 4% | inhibition at 1 µM (CLK1(h)): 17% | inhibition at 1 µM (AMPKα1(h)): 61% | inhibition at 1 µM (Pim-1(h)): 37% | inhibition at 1 µM (MYLK2(h)): 68% | inhibition at 1 µM (CLK4(h)): 68% | inhibition at 1 µM (ErbB2(h)): -3% | inhibition at 1 µM (ACTR2(h)): 10% | inhibition at 1 µM (PAK4(h)): 21% | inhibition at 1 µM (NEK5(h)): 68% | inhibition at 1 µM (MAPK7(h)): 93% | inhibition at 1 µM (GSK3β(h)): 68% | inhibition at 1 µM (IKKβ(h)): 53% | inhibition at 1 µM (Plk1(h)): -5% | inhibition at 1 µM (CK1α(h)): 8% | inhibition at 1 µM (WNK2(h)): 24% | inhibition at 1 µM (NDR2(h)): 27% | inhibition at 1 µM (Plk3(h)): 6%

From PMC11842588, “A first-in-class selective inhibitor of ERK1/2 and ERK5 overcomes drug resistance with a single-molecule strategy” (Signal Transduction and Targeted Therapy, 2025)
